10 molecules from PubChem BioAssay (NCI) can be followed below.

SMILES strings stand for the structures.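 In this assay, cells in 96-well plates receive the compound at five concentrations for 48 hours. Endpoints are linearly interpolated between the surrounding concentrations. At the TGI there is no net growth.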

A word on the TGI: it is the concentration giving total growth inhibition. High values mean less potent growth arrest, low ones more potent growth arrest.

Among the test systems are CAKI-1 renal; HCT-116 colon; HCT-15 colon; HOP-92 NSCLC; HT29 colon; KM12 colon; LOX IMVI melanoma; M14 melanoma; MALME-3M melanoma; OVCAR-3 ovarian; OVCAR-4 ovarian; OVCAR-5 ovarian; OVCAR-8 ovarian; RXF 393 renal; SF-268 CNS; SK-MEL-2 melanoma; MDA-MB-231 breast.
What all share (assay): DTP human tumour cell line panel, 48 h

For `COC(=O)c1onc(-c2c(OC)cc(OC)cc2OC)c1C(=O)OC`, the TGI in the experiment on CAKI-1 renal, with HCT-116 colon, in the experiment with HCT-15 colon, in the experiment with HOP-92 NSCLC, with HT29 colon and with KM12 colon was above 100 µM throughout. Besides, the TGI in the experiment on LOX IMVI melanoma, in the experiment with M14 melanoma, in the experiment on MALME-3M melanoma, with OVCAR-3 ovarian, in the experiment with OVCAR-4 ovarian and in the experiment with OVCAR-5 ovarian was above 100 µM each time. For the same molecule, the TGI in the experiment on OVCAR-8 ovarian, in the experiment on RXF 393 renal, in the experiment with SF-268 CNS and in the experiment on SK-MEL-2 melanoma was above 100 µM throughout.

As for `c1ccc2c(c1)C1CCCCCC21N1CCOCC1` (stereo unspecified), the total growth inhibition concentration (TGI) in the experiment on CAKI-1 renal, with HCT-116 colon, in the experiment on HCT-15 colon, with HT29 colon, with KM12 colon and with LOX IMVI melanoma was above 100 µM in each case. The TGI in the experiment on M14 melanoma, in the experiment on OVCAR-3 ovarian, in the experiment with OVCAR-4 ovarian, with OVCAR-5 ovarian, in the experiment with OVCAR-8 ovarian and in the experiment with RXF 393 renal was above 100 µM throughout. Besides, the TGI with SF-268 CNS and in the experiment on SK-MEL-2 melanoma was above 100 µM each time.

Regarding `CCCP1(=O)C=C(C)C(=C(Cl)Cl)C(C)=C1` (stereo unspecified), the TGI in the experiment on HCT-116 colon is above 100 µM; in the experiment with HCT-15 colon it was above 100 µM; in the experiment with HOP-92 NSCLC, 89.6 µM; in the experiment with HT29 colon, above 100 µM; in the experiment on KM12 colon, 67.9 µM; in the experiment on M14 melanoma, above 100 µM. In addition, the TGI with MALME-3M melanoma, in the experiment on OVCAR-3 ovarian, in the experiment with OVCAR-4 ovarian, in the experiment on OVCAR-5 ovarian, with OVCAR-8 ovarian and with RXF 393 renal was above 100 µM throughout. In addition, the concentration for total growth inhibition (TGI) worked out at 88.3 µM in the experiment with SF-268 CNS and 41 µM in the experiment with SK-MEL-2 melanoma.

Take `O=c1[nH]cc(COCCCO)c(=O)[nH]1`: the TGI in the experiment with CAKI-1 renal, with HCT-116 colon, with HCT-15 colon, in the experiment on HOP-92 NSCLC, in the experiment on HT29 colon and in the experiment on KM12 colon was above 100 µM throughout. Moreover, the TGI in the experiment with LOX IMVI melanoma, with M14 melanoma, with MALME-3M melanoma, in the experiment with OVCAR-3 ovarian, in the experiment with OVCAR-4 ovarian and in the experiment on OVCAR-5 ovarian was above 100 µM each time. Further, the TGI in the experiment with OVCAR-8 ovarian, in the experiment on RXF 393 renal, in the experiment with SF-268 CNS and with SK-MEL-2 melanoma was above 100 µM in each case.

For `CSc1nc2c(c(=O)[nH]1)N=C(c1ccc([N+](=O)[O-])cc1)CC(c1ccccc1)N2` (stereo unspecified), the concentration for total growth inhibition (TGI) is above 100 µM with CAKI-1 renal; 47.1 µM with HCT-116 colon; above 100 µM in the experiment on HOP-92 NSCLC; 48 µM in the experiment with HT29 colon; 33.2 µM in the experiment on KM12 colon; 92.4 µM in the experiment with LOX IMVI melanoma. Moreover, the TGI is above 100 µM in the experiment with M14 melanoma; above 100 µM with MALME-3M melanoma; 78.8 µM with MDA-MB-231 breast; above 100 µM in the experiment on OVCAR-3 ovarian; above 100 µM with OVCAR-4 ovarian; above 100 µM in the experiment with OVCAR-5 ovarian. Besides, the TGI in the experiment with OVCAR-8 ovarian is above 100 µM; in the experiment on RXF 393 renal, above 100 µM; with SK-MEL-2 melanoma it was 88.5 µM.

Turning to `CC1(C)OC(=O)C(C#N)=C1/C=C/c1coc2ccc(Cl)cc2c1=O`, the TGI in the experiment with CAKI-1 renal was 57.5 µM; with HCT-116 colon it was above 100 µM; in the experiment with HCT-15 colon, 87.2 µM; with KM12 colon it was above 100 µM; in the experiment on LOX IMVI melanoma, 40.5 µM; in the experiment with M14 melanoma, above 100 µM. In addition, the TGI in the experiment with MALME-3M melanoma is 66.1 µM; with OVCAR-3 ovarian it was 46.2 µM; in the experiment on OVCAR-4 ovarian it was 55 µM; in the experiment with OVCAR-5 ovarian, above 100 µM; with OVCAR-8 ovarian, 74.6 µM; with SF-268 CNS it was above 100 µM. Besides, the TGI in the experiment with SK-MEL-2 melanoma is 50.9 µM.

Consider `CC(=O)C(CN(CC(C)C)CC(C)C)C(c1ccccc1)c1c(O)c2ccccc2oc1=O` (stereo unspecified), for which the TGI with CAKI-1 renal, in the experiment with HCT-116 colon, in the experiment on HCT-15 colon, in the experiment on HOP-92 NSCLC, in the experiment on HT29 colon and in the experiment on LOX IMVI melanoma was above 100 µM throughout. Moreover, the TGI in the experiment with M14 melanoma, in the experiment on MALME-3M melanoma, with OVCAR-3 ovarian, with OVCAR-4 ovarian, in the experiment with OVCAR-5 ovarian and with OVCAR-8 ovarian was above 100 µM in each case. Further, the TGI in the experiment on RXF 393 renal, in the experiment on SF-268 CNS and in the experiment with SK-MEL-2 melanoma was above 100 µM each time.

In the case of `CN(N=O)C(=O)ON1C(=O)CCC1=O`, the TGI in the experiment with CAKI-1 renal, in the experiment with HCT-116 colon, with HCT-15 colon, in the experiment with HOP-92 NSCLC, in the experiment with HT29 colon and in the experiment on KM12 colon was above 100 µM each time. Also, the TGI in the experiment on LOX IMVI melanoma, in the experiment with M14 melanoma, in the experiment with MALME-3M melanoma, in the experiment with OVCAR-3 ovarian, with OVCAR-4 ovarian and with OVCAR-5 ovarian was above 100 µM in each case. The TGI with OVCAR-8 ovarian, in the experiment with SF-268 CNS and with SK-MEL-2 melanoma was above 100 µM throughout.

In the case of `COc1cccc(OC)c1C(=O)OCc1ccccc1`, the TGI in the experiment on CAKI-1 renal, in the experiment with HCT-116 colon, in the experiment on HCT-15 colon, in the experiment on HOP-92 NSCLC, in the experiment on HT29 colon and with KM12 colon was above 100 µM in each case. Moreover, the TGI with M14 melanoma, in the experiment with OVCAR-3 ovarian, in the experiment on OVCAR-4 ovarian, with OVCAR-8 ovarian, in the experiment on RXF 393 renal and in the experiment on SF-268 CNS was above 100 µM in each case. Also, the TGI in the experiment with SK-MEL-2 melanoma was above 100 µM.

With `Cc1ccc(/C=C/C(=O)C(C)(C)CN2CCCCC2)cc1`, the TGI is 14.2 µM in the experiment on CAKI-1 renal; 22.6 µM in the experiment on HCT-116 colon; 20.1 µM in the experiment with HCT-15 colon; 12 µM with HT29 colon; 13.4 µM with KM12 colon; 23.4 µM with LOX IMVI melanoma. Further, the concentration for total growth inhibition (TGI) in the experiment with M14 melanoma is 20.2 µM; with MALME-3M melanoma, 29.3 µM; with OVCAR-3 ovarian it was 8.65 µM; in the experiment with OVCAR-4 ovarian it was 22.9 µM; in the experiment with OVCAR-5 ovarian it was 30 µM; in the experiment with OVCAR-8 ovarian, 10.3 µM. For the same molecule, the TGI with RXF 393 renal came to 18.7 µM; with SF-268 CNS it was 36.2 µM; with SK-MEL-2 melanoma, 23.4 µM.
